Assay results from US8039501B2, “Synephrine derivatives useful as anti-inflammatory agents” (Universiteit Gent, priority 2005, dated 2011).

How the values were obtained:
[1] = test system: multiple myeloma cells U266; assay: MTT test, cell viability of U266 cells; assay type: cell-based, human; conditions: Homo sapiens, U-266; 10^−4M; serum-free medium; FIG. 2A; read-out: Cell killing / reduction of viability of U266 cells
Procedure: (§1) The MTT test is a standard assay addressing cell toxicity of a compound. It is based on the principle that after 3-4 hours of cell incubation with MTT (3-(4,5-dimethylthiazole-2-yl)-2,5-diphenyl tetrazolium bromide) so-called purple formazan crystals develop in living and early apoptotic cells. Dead cells don't produce formazan crystals.
(§2) Different cell lines were tested. Unless indicated differently, A549 human lung epithelial cells (derived from lung carcinoma) and L929sA murine fibroblast cells were cultured in DMEM with 10% FCS, 100 U/ml penicillin and 100 μg/ml streptomycin. Unless indicated differently, the human multiple myeloma cell lines L363, U266 and MM1.S were cultured in RPMI 1640 with Glutamax-I, supplemented with 10% FCS, 100 U/ml penicillin and 100 μg/ml streptomycin. Cells were seeded at 5000 cells/well (for adherent A549 and L929sA cells) or at 10000 cells/well (for the multiple myeloma lines in suspension) in 96 well plates. Cells were incubated in the presence of the respective synephrine compounds or vehicle (EtOH; for control test) in a final volume of 0.2 ml for 24 or 48 hours at 37° C. Subsequently, 20 μl of MTT solution (5 mg/ml in phosphate-buffered saline) was added to each well. After 4 hours incubation at 37° C., 80 μl of the extraction buffer (10% SDS, 0.01 M HCl) was added. After overnight incubation at room temperature, the optical densities at 590 nm were measured. Results are illustrated in FIGS. 2 to 6 and are expressed as percentage of viable cells as compared to vehicle-treated controls.
(§3) The MTT test was further extended to include alternative synephrine derivatives and a range of multiple myeloma cell lines for which the results are illustrated by FIGS. 3A, 3B and 4A. Human multiple myeloma cell lines L363, U266 and MM1.S were cultured in RPMI 1640 with Glutamax-I, supplemented with 10% FCS, 100 U/ml penicillin and 100 μg/ml streptomycin. Cells were seeded at 10000 cells/well in 96 well plates. Cells were incubated in the presence of test compounds or vehicle in a final volume of 0.2 ml for 24 or 48 hours at 37° C. The test compounds included in the test were the synephrine derivatives CpdA, Naphth, Benz and Isobut, and DEX as a comparative example. Subsequently, 20 μl of MTT solution (5 mg/ml in phosphate-buffered saline) was added to each well. After 4 hours incubation at 37° C., 80 μl of the extraction buffer (10% SDS, 0.01 M HCl) was added. After 48 hours incubation at room temperature, the optical densities at 590 nm were measured. Results are expressed as percentage of viable cells as compared to vehicle-treated controls.

[2] = test system: MM1.S cell line; assay: MTT test, cell viability of MM1.S cells; assay type: cell-based, human; conditions: Homo sapiens, MM1.S; 10^−4 M; 10% FCS; FIG. 4A; read-out: Inhibition of MM1.S cell viability
Procedure: as §1, §2, §3

[3] = MTT test, cell viability of L929sA fibroblasts; assay type: cell-based, murine; conditions: mouse, L929sA fibroblast cells; 10^−4 M; 48 hours; FIG. 5B; read-out: Block of L929sA cell viability
Procedure: as §1, §2
In a further MTT test, the activity of the synephrine derivatives on the inhibition of cell viability of non-immune cells was measured. […] Tests were performed for 24 hours and for 48 hours. The results are illustrated by FIGS. 5A and 5B for L929 cells, and by FIGS. 6A and 6B for A549 cells. It was observed that CpdA at 10^−5 M blocked cell viability of L929sA and A549 for not more than 10%.

[4] = test system: MCF7 breast cancer cells; conditions: 10^−6 M
Procedure: In further experiments, nylon arrayfilter hybridization experiments were performed. cDNA array analyses were carried out according to the instructions of the manufacturer (SuperArray Simplicity GEArray™ KIT) on the cDNA arrays cancer pathway finder and stress and toxicity array. Total RNA, obtained by the protocol as described herein above, was used as a template for [α−^33P]-cDNA probe synthesis using the following steps:
A second array hybridization experiment was performed on Human Stress and Toxicity Pathway Finder GEarray Q series. The same protocol was followed as for the array hybridization experiment on the Human Cancer Pathway Finder described herein above.

[5] = test system: B16BL6 melanoma, PG19 melanoma and Lewis Lung Carcinoma; assay: In vivo melanoma model, subcutaneous tumors in mice; conditions: eight days of treatment with 200 μg; PBS-treated 1.51+/−0.13 g
Procedure: In vivo melanoma model • Cells of B16BL6 melanoma, PG19 melanoma and Lewis Lung Carcinoma are kept in culture in DMEM supplemented with fetal calf serum, antibiotics and L-glutamine. Cells are harvested, washed three times in LPS-free PBS, and brought to a density of 6×10^6/ml (B16BL6) or 20×10^6/ml (PG19, EL4 and LLC). 100 μl of the cell suspension is injected subcutaneously into shaven, right hind limbs of the mice. When the tumors reach a size of 50-70 mm^2, daily treatment is started with dexamethasone (DEX), hydrocortisone (HYDRO), compound A (CpdA) or its analogues (intraperitoneally (i.p.) or in drinking water). DEX, HYDRO are diluted in PBS; CpdA is diluted in 20% ethanol. The smaller and larger diameters of the tumor are measured daily with an electronic caliper. Tumor size index (TSI) is defined in mm^2 as (a)×(b), (a) being the longest diameter of the tumor and (b) the diameter perpendicular to (a). […] Each mouse receives daily either PBS or a specific dose of DEX, ranging from 5 μg to 200 μg. […]. […] Toxicity and efficacy of CpdA and analogues will be evaluated.

[6] = Serum ELISA of osteoclast and osteoblast markers in DBA/1 mice; conditions: 62.5 μg daily, 8 day treatment; FIG. 21A
Text: DBA/1 mice—Male 8- to 12-wk-old DBA/1 mice were purchased from Janvier and housed following institutional guidelines. All animal procedures were approved by the institutional animal care and ethics committee. […] The human IL-6 and IL-8 cytoset were purchased from BioSource International, Inc. For the detection of TRAP5b in DBA/1 mice serum we used the Mouse TRAP Assay, purchased from Immunodiagnostic systems limited. The osteocalcin EIA kit was purchased from Biomedical Technologies, Inc. All assays were performed according to the manufacturer's instructions.

- Levels of cyp1A1, FMO1, HMOX2, ATM, bcl2L1, casp1 [4]: increases levels
- TRAP5b in mouse serum [6]: increase of TRAP5b in mouse serum
SMILES: C[C@@H]1C[C@H]2[C@@H]3CCC4=CC(=O)C=C[C@]4(C)[C@@]3(F)[C@@H](O)C[C@]2(C)[C@@]1(O)C(=O)CO [DEX, dexamethasone, reference compound]
- cytotoxicity at 100 µM [1]: 10%
- cytotoxicity at 100 µM [2]: 30%
- cytotoxicity at 48 h [3]: 30%
- Mean weight of tumors [5]: 0.59 ± 0.04 g
